Measurements as given in paper doi:10.1101/2025.03.03.641126v1 (bioRxiv, 2025).

Test system: Panc354 and MetPO1 cells
Assay: Flow cytometry for CD133 after combination treatment
Assay type: cell-based, human
Conditions: representative cytometry plot, JM#21 10μM, Gem 1μM

## Nc1ccn([C@@H]2O[C@H](CO)[C@@H](O)C2(F)F)c(=O)n1 [gemcitabine]
  CD133 - PE positive cells: 14.5%
